Results as given in ChEMBL document CHEMBL1201862, “PubChem BioAssay data set” (2004).
Calls of active or inactive are those of the source.

Key:
[1] = NIH-3T3 fibroblast cytotoxicity, dose response, cytotoxicity control, cell-based, fluorescence, Alamar Blue, secondary assay (AID 2327); type: functional;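 further: NIH-3T3 mouse fibroblasts cultured with fluconazole at 8 µg/mL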
[2] = fluconazole-exposed Candida albicans growth modulators – fluorescence, retest, confirmation (AID 2467); type: functional, cell-based
Exodeoxyribonuclease V = biological target: T1, Exodeoxyribonuclease V (Escherichia coli (strain K12), UniProt P04993+P07648+P08394); test: RecBCD inhibition via phage-restricted bacterial growth – absorbance, V66 E. coli, mutant T4 phage, counter-screen for AddAB inhibitor project, dose response (AID 492957); type: functional, cell-based, Escherichia coli str. K-12 substr. MG1655
T1 sequence (P04993 whole entry): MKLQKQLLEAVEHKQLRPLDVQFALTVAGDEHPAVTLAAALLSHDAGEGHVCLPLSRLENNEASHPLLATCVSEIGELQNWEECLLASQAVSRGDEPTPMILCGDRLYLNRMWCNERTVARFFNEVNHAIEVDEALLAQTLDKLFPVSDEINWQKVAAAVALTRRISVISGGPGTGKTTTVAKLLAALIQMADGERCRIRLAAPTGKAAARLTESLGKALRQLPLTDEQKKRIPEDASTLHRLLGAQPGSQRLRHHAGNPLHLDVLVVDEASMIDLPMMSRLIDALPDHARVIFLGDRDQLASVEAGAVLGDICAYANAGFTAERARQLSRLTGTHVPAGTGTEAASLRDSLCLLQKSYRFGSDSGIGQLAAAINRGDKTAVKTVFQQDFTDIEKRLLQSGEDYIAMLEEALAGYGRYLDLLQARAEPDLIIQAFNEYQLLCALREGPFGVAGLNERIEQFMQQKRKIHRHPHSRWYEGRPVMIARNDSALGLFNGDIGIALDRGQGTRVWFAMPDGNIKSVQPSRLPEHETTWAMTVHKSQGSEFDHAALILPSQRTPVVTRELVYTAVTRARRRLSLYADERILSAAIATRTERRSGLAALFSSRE
T1 sequence (P07648 whole entry): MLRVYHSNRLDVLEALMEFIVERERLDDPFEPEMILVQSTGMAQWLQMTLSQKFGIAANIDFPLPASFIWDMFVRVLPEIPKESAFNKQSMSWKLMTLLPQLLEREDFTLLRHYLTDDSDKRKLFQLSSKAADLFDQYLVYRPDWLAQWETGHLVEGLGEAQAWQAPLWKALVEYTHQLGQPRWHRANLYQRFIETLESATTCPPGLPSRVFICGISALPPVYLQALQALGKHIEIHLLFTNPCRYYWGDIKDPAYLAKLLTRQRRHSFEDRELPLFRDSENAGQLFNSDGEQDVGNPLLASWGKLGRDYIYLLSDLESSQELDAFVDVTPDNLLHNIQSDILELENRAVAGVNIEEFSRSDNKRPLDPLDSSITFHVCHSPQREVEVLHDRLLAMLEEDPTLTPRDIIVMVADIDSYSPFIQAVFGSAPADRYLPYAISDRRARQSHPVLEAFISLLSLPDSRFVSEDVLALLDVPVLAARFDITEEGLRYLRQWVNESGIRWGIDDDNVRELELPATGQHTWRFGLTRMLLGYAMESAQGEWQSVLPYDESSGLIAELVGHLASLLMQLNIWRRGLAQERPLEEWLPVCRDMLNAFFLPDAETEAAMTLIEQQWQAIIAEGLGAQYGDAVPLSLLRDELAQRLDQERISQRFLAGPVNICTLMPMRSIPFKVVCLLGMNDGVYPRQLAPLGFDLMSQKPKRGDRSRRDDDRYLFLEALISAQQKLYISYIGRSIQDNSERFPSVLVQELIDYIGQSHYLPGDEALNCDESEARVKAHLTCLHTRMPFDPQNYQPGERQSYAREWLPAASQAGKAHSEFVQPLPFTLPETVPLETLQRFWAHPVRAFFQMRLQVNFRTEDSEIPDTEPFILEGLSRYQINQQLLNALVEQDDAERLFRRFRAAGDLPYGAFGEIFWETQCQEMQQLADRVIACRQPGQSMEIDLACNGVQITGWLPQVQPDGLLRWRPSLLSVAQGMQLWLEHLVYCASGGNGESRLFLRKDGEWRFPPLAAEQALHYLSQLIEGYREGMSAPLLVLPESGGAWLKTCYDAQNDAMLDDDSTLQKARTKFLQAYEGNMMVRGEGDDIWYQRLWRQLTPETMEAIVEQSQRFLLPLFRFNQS
T1 sequence (P08394 whole entry): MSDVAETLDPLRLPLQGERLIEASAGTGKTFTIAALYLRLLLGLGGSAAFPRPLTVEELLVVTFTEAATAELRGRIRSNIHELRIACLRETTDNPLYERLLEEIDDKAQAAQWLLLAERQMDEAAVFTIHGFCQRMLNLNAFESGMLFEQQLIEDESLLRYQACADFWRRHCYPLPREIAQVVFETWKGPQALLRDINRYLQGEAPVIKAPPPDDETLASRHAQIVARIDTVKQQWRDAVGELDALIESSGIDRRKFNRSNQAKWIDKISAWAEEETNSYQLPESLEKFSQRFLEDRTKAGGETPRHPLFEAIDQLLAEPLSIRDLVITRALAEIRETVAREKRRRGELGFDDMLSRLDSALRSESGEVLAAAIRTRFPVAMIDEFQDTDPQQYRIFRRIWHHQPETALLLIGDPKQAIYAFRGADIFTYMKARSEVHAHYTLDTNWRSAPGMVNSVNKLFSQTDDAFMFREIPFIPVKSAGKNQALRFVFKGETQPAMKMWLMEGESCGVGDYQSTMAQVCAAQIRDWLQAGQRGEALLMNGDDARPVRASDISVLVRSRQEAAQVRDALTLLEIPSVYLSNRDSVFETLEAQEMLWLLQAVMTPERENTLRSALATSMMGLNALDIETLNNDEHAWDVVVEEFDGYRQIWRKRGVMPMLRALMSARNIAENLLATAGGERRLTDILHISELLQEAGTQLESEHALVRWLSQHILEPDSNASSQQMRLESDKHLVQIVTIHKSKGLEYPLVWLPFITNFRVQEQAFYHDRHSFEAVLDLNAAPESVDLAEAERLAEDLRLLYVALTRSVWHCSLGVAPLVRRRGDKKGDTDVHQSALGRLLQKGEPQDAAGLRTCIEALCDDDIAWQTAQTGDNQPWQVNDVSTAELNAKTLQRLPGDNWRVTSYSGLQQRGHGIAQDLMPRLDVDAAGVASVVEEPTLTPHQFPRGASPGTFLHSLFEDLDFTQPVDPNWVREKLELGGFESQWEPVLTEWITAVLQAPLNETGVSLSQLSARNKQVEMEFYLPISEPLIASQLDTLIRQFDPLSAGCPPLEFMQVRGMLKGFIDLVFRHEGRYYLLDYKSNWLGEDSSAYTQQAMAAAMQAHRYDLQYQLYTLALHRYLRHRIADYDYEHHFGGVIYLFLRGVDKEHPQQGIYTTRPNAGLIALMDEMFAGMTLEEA

[3] = Luminescence Cell-Based Dose Retest to Confirm Inhibitors of Cancer Stem Cells. [Related pubchem assays (depositor defined):AID2717, AID2721]; type: functional; conditions: Homo sapiens
[4] = Counterscreen for AddAB inhibitors: absorbance-based bacterial cell-based high throughput dose response assay for inhibitors of bacterial viability. [Related pubchem assays (depositor defined):AID435030, AID449728, AID449731, AID488942, AID488955, AID488956]; type: functional
[5] = biological target: Intestinal-type alkaline phosphatase (Mus musculus, UniProt P24822); test: PubChem AID 488874; type: functional
Intestinal-type alkaline phosphatase (Mus musculus, UniProt P24822), sequence (P24822 whole entry): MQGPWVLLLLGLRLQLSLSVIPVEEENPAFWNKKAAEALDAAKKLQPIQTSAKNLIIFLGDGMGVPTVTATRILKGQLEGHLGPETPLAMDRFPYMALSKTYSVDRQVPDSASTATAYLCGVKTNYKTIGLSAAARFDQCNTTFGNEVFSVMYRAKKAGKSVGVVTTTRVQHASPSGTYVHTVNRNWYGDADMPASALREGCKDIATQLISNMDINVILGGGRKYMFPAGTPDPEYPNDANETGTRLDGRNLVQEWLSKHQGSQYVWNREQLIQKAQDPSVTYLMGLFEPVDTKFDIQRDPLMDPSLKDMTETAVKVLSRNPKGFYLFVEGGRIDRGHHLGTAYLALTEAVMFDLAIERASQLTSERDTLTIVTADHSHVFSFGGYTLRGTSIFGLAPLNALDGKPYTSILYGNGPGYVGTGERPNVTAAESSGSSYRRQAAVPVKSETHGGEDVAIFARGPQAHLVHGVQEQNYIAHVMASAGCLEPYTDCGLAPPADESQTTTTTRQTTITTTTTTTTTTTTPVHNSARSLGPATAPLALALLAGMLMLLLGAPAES

[6] = biological target: T2, Intestinal-type alkaline phosphatase (Homo sapiens, UniProt P09923); test: human intestinal alkaline phosphatase activators, dose response, biochemical, luminescence, uHTS hits (AID 463120); type: functional
T2 sequence (P09923 whole entry): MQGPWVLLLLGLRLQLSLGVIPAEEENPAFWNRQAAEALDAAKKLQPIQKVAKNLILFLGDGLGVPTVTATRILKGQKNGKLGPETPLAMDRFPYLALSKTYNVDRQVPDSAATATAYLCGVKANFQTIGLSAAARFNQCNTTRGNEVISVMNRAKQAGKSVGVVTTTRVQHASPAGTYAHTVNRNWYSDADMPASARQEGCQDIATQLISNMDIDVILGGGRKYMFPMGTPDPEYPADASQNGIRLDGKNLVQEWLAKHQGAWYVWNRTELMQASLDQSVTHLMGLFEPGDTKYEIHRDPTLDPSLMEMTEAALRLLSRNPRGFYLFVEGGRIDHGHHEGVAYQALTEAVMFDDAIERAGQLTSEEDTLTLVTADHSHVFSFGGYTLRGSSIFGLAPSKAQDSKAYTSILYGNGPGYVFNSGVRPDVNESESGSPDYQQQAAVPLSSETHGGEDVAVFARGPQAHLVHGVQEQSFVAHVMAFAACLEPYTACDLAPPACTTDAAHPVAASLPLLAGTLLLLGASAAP

[7] = biological target: T2, Intestinal-type alkaline phosphatase; test: activation of human intestinal alkaline phosphatase – biochemical, luminescent, uHTS hits, set 2, dose response (AID 488817); type: functional;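 further: potency of activators that raise enzyme activity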
[8] = biological target: T3, Alkaline phosphatase, tissue-nonspecific isozyme (Homo sapiens, UniProt P05186); test: activation of tissue-nonspecific alkaline phosphatase – biochemical, TNAP isozyme, human IAP uHTS hits, selectivity assay for human IAP activator project, dose response (AID 488886); type: functional;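 further: potency of compounds raising TNAP activity as a selectivity check on IAP activators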
T3 sequence (P05186 whole entry): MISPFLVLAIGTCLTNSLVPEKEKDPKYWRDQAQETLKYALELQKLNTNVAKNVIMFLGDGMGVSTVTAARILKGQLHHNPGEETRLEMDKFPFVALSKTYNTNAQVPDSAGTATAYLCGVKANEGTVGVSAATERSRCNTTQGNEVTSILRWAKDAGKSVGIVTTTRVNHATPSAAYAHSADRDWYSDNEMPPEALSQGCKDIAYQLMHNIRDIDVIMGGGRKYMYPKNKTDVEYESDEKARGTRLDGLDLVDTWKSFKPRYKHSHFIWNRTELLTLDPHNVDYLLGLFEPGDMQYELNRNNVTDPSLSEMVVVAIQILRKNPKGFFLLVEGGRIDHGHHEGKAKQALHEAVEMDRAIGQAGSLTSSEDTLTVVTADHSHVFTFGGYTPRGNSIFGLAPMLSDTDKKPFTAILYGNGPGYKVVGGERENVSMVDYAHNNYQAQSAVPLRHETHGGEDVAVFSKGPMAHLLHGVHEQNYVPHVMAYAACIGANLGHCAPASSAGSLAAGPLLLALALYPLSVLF

Albumin = Albumin (Bos taurus, UniProt P02769); test: Counterscreen for inhibitors of T-cell receptor (TCR)-CD3 interaction: Fluorescence-based biochemical high throughput dose response assay to identify inhibitors of T-cell receptor (TCR)-CD3 interaction using a TAMRA-labeled BSA probe.; type: functional
Albumin, sequence (P02769 whole entry, the tested form may be a part): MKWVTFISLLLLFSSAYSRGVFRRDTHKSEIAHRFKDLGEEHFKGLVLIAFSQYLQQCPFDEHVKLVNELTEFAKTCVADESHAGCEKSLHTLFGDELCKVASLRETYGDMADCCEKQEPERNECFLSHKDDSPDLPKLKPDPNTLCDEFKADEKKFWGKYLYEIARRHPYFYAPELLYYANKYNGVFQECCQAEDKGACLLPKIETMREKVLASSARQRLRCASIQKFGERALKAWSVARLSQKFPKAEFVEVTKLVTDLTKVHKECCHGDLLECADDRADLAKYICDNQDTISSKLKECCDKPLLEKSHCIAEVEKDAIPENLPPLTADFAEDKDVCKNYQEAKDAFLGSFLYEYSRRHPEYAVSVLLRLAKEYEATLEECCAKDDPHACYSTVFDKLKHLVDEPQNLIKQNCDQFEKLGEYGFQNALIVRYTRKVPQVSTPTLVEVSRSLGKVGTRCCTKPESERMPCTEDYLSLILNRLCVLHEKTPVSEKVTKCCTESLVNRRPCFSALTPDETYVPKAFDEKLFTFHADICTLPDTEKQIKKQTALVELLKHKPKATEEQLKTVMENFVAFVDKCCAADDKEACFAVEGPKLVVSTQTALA

[9] = biological target: T4, RNA-binding protein pos-1 (Caenorhabditis elegans, UniProt G5EF15); test: disruptors of C. elegans POS-1 RNA interaction – biochemical, fluorescence polarization, dose response (AID 1964);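 further: purified POS-1 fused to maltose binding protein made in E. coli; potency of compounds blocking POS-1 binding to fluorescent RNA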
T4 sequence (G5EF15 whole entry): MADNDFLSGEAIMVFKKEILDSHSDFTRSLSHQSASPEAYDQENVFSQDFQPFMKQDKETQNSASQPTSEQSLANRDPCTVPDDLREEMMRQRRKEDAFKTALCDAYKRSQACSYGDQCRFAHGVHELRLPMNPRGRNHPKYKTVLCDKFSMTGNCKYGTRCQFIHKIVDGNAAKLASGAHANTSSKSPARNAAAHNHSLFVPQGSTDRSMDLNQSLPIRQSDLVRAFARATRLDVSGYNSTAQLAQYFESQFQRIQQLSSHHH

[10] = biological target: T5, Zinc finger protein mex-5 (Caenorhabditis elegans, UniProt Q9XUB2); test: potency of MEX-5 RNA-binding blockers – biochemical, C. elegans, fluorescence polarization, dose response (AID 1960)
T5 sequence (Q9XUB2 whole entry): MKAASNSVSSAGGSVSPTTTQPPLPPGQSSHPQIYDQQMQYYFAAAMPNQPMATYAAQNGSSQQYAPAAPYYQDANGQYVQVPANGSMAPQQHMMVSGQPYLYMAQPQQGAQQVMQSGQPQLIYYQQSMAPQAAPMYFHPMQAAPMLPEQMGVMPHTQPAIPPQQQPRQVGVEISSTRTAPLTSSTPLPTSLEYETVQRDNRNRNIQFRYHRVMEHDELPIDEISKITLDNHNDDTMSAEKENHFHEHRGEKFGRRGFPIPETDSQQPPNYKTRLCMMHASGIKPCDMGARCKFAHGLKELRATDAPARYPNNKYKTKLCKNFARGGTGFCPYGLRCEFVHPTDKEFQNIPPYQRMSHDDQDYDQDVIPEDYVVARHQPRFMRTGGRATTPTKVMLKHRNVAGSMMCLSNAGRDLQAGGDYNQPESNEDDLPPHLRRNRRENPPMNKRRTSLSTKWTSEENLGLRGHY

[11] = biological target: T6, Mannose-6-phosphate isomerase (Homo sapiens, UniProt P34949); test: phosphomannose isomerase inhibition – biochemical, fluorescence intensity, confirmation (AID 1535)
T6 sequence (P34949 whole entry): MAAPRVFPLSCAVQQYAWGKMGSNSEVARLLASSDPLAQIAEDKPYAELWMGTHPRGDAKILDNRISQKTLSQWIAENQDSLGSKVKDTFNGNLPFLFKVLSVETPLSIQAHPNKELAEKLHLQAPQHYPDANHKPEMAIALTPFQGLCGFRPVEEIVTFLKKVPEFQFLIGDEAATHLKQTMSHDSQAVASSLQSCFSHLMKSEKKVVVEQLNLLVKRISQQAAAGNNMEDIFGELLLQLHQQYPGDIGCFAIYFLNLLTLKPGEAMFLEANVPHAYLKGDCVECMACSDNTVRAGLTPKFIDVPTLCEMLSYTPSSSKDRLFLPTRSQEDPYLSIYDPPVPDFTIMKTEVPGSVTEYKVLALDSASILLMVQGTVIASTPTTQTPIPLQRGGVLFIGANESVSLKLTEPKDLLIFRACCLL

Phosphomannomutase 2 = biological target: T7, Phosphomannomutase 2 (Homo sapiens, UniProt O15305); test: Counter screen SAR assay for PMM2 inhibitors via a fluorescence intensity assay. [Related pubchem assays (depositor defined):AID1545, AID1574]
T7 sequence (O15305 whole entry): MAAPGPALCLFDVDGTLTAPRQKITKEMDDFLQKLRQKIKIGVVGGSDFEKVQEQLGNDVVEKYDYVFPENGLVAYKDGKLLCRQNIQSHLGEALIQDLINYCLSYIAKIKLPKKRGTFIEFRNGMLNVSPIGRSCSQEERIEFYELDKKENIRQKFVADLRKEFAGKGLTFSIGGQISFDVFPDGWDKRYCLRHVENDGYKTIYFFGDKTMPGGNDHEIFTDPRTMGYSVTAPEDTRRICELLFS
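Wherever AC50 is given: cells exposed to compound for roughly 70 hours or longer before luminescence read.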

SMILES | IC50 [5] | EC50 [6] | EC50 [7] | EC50 [8] | IC50 [11] | IC50 (Exodeoxyribonuclease V) | IC50 [4] | other results
O=C1c2ccccc2NC(c2ccc(-c3cccc(Cl)c3)o2)N1O (stereo unspecified) |  |  |  |  |  | > 119 µM (inactive) | > 119 µM (inactive) | EC50 [1]: 33.4 µM (active); EC50 [2]: 1.91 µM (active); AC50 [3]: 4.45 µM (active)
Cc1nc2c3ccccc3nc(NNC(=O)CCC(=O)N3CCCC(C)C3)n2n1 (stereo unspecified) | 64.2 µM (active) | 8.07 µM (active) | 10.7 µM (active) | 12.2 µM (active) |  |  |  | EC50 [9]: > 300 µM (not active); EC50 [10]: 21 µM (active)
CCNc1c([N+](=O)[O-])c(=O)oc2ccccc12 |  |  |  |  |  | > 119 µM (inactive) | > 119 µM (inactive) | 

Further lines, with some results ahead:

IC50 [5] | EC50 [6] | EC50 [7] | EC50 [8] | IC50 [11] | SMILES | IC50 (Exodeoxyribonuclease V) | IC50 [4] | other results
35.5 µM (active) | 8.21 µM (active) | 8.77 µM (active) | > 100 µM (inactive) |  | O=Nc1nc(O)c(/C=C(\O)c2ccccc2)nc1NO |  |  | IC50 (Albumin): > 94.2 µM (inactive)
 |  |  |  | > 100 µM (inactive) | Clc1nss/c1=N\c1ccccn1 |  |  | 
 |  |  |  | 26.1 µM (active) | Cc1ccc(/N=c2\ssnc2Cl)cc1C |  |  | IC50 (Phosphomannomutase 2): 95.4 µM (active)
